Results reported in US7993687B2, “Compositions and methods for management of diabetes” (priority 2006, dated 2011).

Tests used:
plasma glucose = settings: normal rats; synthetic D-CI intragastrically 2 hours before intraperitoneal glucose load (4 g/kg); cited from earlier work
[1] = test system: S6 ribosomal protein (Ser235/236); experiment: Western blot of ribosomal protein S6 phosphorylation in H4IIE cells; assay type: cell-based, rat; settings: 6 minutes
Procedure: Tissue culture media, antibiotics, fetal bovine serum (FBS) and Nunc tissue culture plates were purchased from Invitrogen Canada Inc. (Burlington, Ontario, Canada, L7P 1A1). Insulin (Sigma-Aldrich Canada Ltd., Oakville, Ontario, Canada, L6H 6J8) was dissolved in water and added directly to cells at a concentration of 250 nM unless otherwise indicated. The BWE was prepared and analyzed as described in Example 1. Two μL of the BWE were added directly to cells unless otherwise indicated. This amount was chosen on the basis of equivalence to insulin. […]
Cellular protein extracts were prepared by addition of 200 μL 2×SDS/gel loading buffer (0.125 M Tris pH 6.8, 2% SDS, 10% glycerol) to H4IIE cells in 12-well culture dishes. The samples were briefly sonicated, and protein content measured using the BCA protein assay kit. […] HRP was detected using the ECL chemiluminescent system after the membranes had been washed four times.
Quantification of data obtained on film (Kodak X-omat) was accomplished with a GS800 imaging densitometer (Bio-Rad Laboratories) under nonsaturating conditions with local background subtraction. […]

PDK-1 (Ser241) = experiment: Western blot of PDK-1 phosphorylation in H4IIE cells; assay type: cell-based, rat; settings: for PDK-1 (Ser241) phosphorylation, stimulation (fold) relative to the control: 6 min, one experiment
Procedure: (§1) Tissue culture media, antibiotics, fetal bovine serum (FBS) and Nunc tissue culture plates were purchased from Invitrogen Canada Inc. (Burlington, Ontario, Canada, L7P 1A1). Insulin (Sigma-Aldrich Canada Ltd., Oakville, Ontario, Canada, L6H 6J8) was dissolved in water and added directly to cells at a concentration of 250 nM unless otherwise indicated. The BWE was prepared and analyzed as described in Example 1. Two μL of the BWE were added directly to cells unless otherwise indicated. This amount was chosen on the basis of equivalence to insulin. Myo-inositol (Sigma-Aldrich Canada Ltd.) and D-chiro-inositol (Industrial Research Ltd., Wellington, New Zealand) were dissolved in water at an equal concentration to the amounts present in the BWE (Table 3) and 2 μL of each solution (0.1% v/v final concentration) was added directly to cells.
(§2) Rat H4IIE hepatoma cells (American Type Culture Collection, CRL 1548) were cultured following the method disclosed by Yau et al., (1998, Eur. J. Biochem. 253: 91-1). The H4IIE cells were maintained in α-modified Eagle's media containing 10% FBS, 2 mM glutamine, 25 μg·mL^−1 streptomycin and 25 units·mL^−1 penicillin. Cells were plated and grown to 70% confluence. All cells were placed into serum-free medium for 72 h before addition of stimulating agents to ensure entry into a quiescent state.
(§3) Cultures of quiescent H4IIE cells or quiescent FAO cells were placed into 12-well culture dishes containing 2 mL serum-free medium, and then stimulated by direct addition of the inhibitors listed in Table 1 (volumes of additions were 10 μL or less) without replacing the medium. […] The cells in 12-well culture dishes were incubated with stimulating agents for 6 minutes and rinsed with phosphate buffered saline (PBS; 0.9% NaCl, 0.1 M Na3PO4, pH 7.1).
(§4) Cellular protein extracts were prepared by addition of 200 μL 2×SDS/gel loading buffer (0.125 M Tris pH 6.8, 2% SDS, 10% glycerol) to H4IIE cells in 12-well culture dishes. The samples were briefly sonicated, and protein content measured using the BCA protein assay kit. Aliquots containing equal amounts of protein were mixed with bromophenol blue (0.5% (w/v) final concentration) and 2-mercaptoethanol (5% (v/v) final concentration), heated at 95° C. and loaded onto 7.5% or 10% polyacrylamide gels. […] Primary antibodies (diluted 1:1000 in 3% (w/v) BSA) were incubated with the membrane for 60 min at 22° C. Membranes were subsequently washed four times and incubated for an additional 60 min at 1 8-22° C. in 1% (w/v) BSA-TBST with diluted HRP-coupled secondary antibody (1:10 000). HRP was detected using the ECL chemiluminescent system after the membranes had been washed four times.
(§5) Quantification of data obtained on film (Kodak X-omat) was accomplished with a GS800 imaging densitometer (Bio-Rad Laboratories) under nonsaturating conditions with local background subtraction. Although multiple exposures were acquired to ensure the absence of film saturation, the experimental figures typically show longer exposures selected specifically for visual presentation and not necessarily used for data analysis. Graphical data are presented as means±SE for a minimum of three replicate samples.

Raf (Ser259) = experiment: Western blot of Raf phosphorylation in H4IIE cells; assay type: cell-based, rat; settings: for Raf (Ser259) phosphorylation, stimulation (fold) relative to the control: 6 min, one experiment
Procedure: as §1, §2, §3, §4, §5

[2] = insulin-stimulated, 15-min preincubation with the inhibitor (None = insulin alone)
[3] = BWE-stimulated, 15-min preincubation with the inhibitor (None = BWE alone)

Compound	decrease in plasma glucose (plasma glucose)	phosphorylation of ribosomal protein S6 [1]	phosphorylation (activation) of PDK (PDK-1 (Ser241); 6 minutes)	PDK-1 (Ser241) phosphorylation, stimulation (fold) relative to the control (PDK-1 (Ser241); [2])	phosphorylation (activation) of RAF (Raf (Ser259); 6 minutes)	Raf (Ser259) phosphorylation, stimulation (fold) relative to the control (Raf (Ser259); [2])	PDK-1 (Ser241) phosphorylation, stimulation (fold) relative to the control (PDK-1 (Ser241); [3])	Raf (Ser259) phosphorylation, stimulation (fold) relative to the control (Raf (Ser259); [3])
OC1C(O)C(O)C(O)C(O)C1O [D-CI, D-chiro-inositol]	30-50%							
insulin: Insulin (Sigma-Aldrich) dissolved in water, positive comparator		insulin did	not stimulated	1.57 fold	not stimulated	0.53 fold		
COc1cccc(-c2cc(=O)c3ccccc3o2)c1N [PD98059]				1.89 fold		0.20 fold	0.54 fold	0.20 fold
